Each structure is given as a SMILES string.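 Step 1: Grow cells in 96-well plates. Step 2: Expose to compound for 48 hours at 5 concentrations. Step 3: Interpolate endpoints linearly; if unreached, use highest concentration. The concentration for 50% growth inhibition is given as GI50.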 The source made the active and inactive calls. Cut-off read from the data, not from the text of the source: active = GI50 up to about 1.1 µM and inactive = higher. Where only a bound is given, the exact number is not on record here.

This note sets out measurements from ChEMBL document CHEMBL1201862, “PubChem BioAssay data set” (2004).

What all share (experiment): growth of human tumour cells (NCI), 48 h
Experiment [1] concerns 786-0.
Experiment [2] has as its system A549.
Experiment [3] deals with ACHN.
The test system of experiment [4] is BT-549.
For experiment [5], the system named is CCRF-CEM.
Experiment [6] deals with DU-145.
The subject of experiment [7] is HCT-116.
In experiment [8] the test system is IGROV-1.
Experiment [9] relates to MCF7.
Experiment [10] relates to OVCAR-3.
The test system of experiment [11] is OVCAR-4.
For experiment [12], the system named is PC-3.
Experiment [13] deals with SF-268.
For experiment [14], the system named is SF-295.
Experiment [15] has as its system SK-OV-3.
Experiment [16] has as its system SN12C.
Experiment [17] deals with SNB-19.
Experiment [18] deals with SW-620.
Experiment [19] has as its system U-251.
Experiment [20] relates to HL-60.

For `ClC(Cl)(Cl)C1=N[C@H]2[C@H](Br)[C@@H]3O[C@@H](c4ccccc4)[C@H](c4ccccc4)O[C@@H]3[C@H]2O1`, the GI50 is 21.4 µM (inactive) in experiment [1]; 21.5 µM (inactive) in experiment [2]; 17.3 µM (inactive) in experiment [3]; 24.9 µM (inactive) in [4]; 17.7 µM (inactive) in experiment [5]; 26.5 µM (inactive) in experiment [6]. For the same compound, the GI50 was 18.7 µM (inactive) in [7]; 15.3 µM (inactive) in [8]; 17.3 µM (inactive) in experiment [9]; 16.6 µM (inactive) in [10]; 18.7 µM (inactive) in experiment [11]; 16 µM (inactive) in experiment [12]. In addition, the GI50 is 18.4 µM (inactive) in [13]; 17.1 µM (inactive) in experiment [14]; 18.5 µM (inactive) in experiment [15]; 20.1 µM (inactive) in experiment [16]; 27.4 µM (inactive) in experiment [17]; 19.6 µM (inactive) in experiment [18]. Besides, the GI50 in experiment [19] was 17.1 µM (inactive).

With `C/C(=C\COP(=O)(O)OP(=O)(O)O)CC/C=C(\C)CNc1ccccc1`, the GI50 in experiment [1] is > 50 µM (inactive); in experiment [2], > 50 µM (inactive); in [3] it was > 50 µM (inactive); in [4], 9.16 µM (inactive); in [5], 0.832 µM (active); in experiment [6] it was > 50 µM (inactive). Besides, the GI50 in experiment [7] is > 50 µM (inactive); in experiment [20], 1.05 µM (active); in experiment [8], 11 µM (inactive); in experiment [9], > 50 µM (inactive); in experiment [12] it was > 50 µM (inactive); in [13], > 50 µM (inactive). The GI50 is > 50 µM (inactive) in experiment [14]; > 50 µM (inactive) in [15]; > 50 µM (inactive) in experiment [16]; 48.1 µM (inactive) in experiment [17]; > 50 µM (inactive) in [18]; > 50 µM (inactive) in experiment [19].

`COc1ccc(NCn2nc(CCCCCCCCc3nn(CNc4ccc(OC)cc4)c(=S)o3)oc2=S)cc1`: the GI50 in experiment [1] is > 100 µM (inactive); in experiment [2], > 100 µM (inactive); in [3], > 100 µM (inactive); in [4] it was > 100 µM (inactive); in experiment [6], > 100 µM (inactive); in experiment [7], 21 µM (inactive). The GI50 in experiment [9], in [11], in experiment [12], in experiment [13], in experiment [14] and in [15] was > 100 µM (inactive) each time. The GI50 in experiment [16], in experiment [17], in [18] and in [19] was > 100 µM (inactive) each time.

As for `CO/C(=N\N=C\c1ccc(C(F)(F)F)cc1)c1ccncc1`, the GI50 in experiment [1], in [2], in experiment [3], in experiment [4], in [5] and in [6] was > 10 µM (inactive) throughout. In addition, the GI50 in experiment [7], in experiment [20], in experiment [9], in experiment [10], in [11] and in [12] was > 10 µM (inactive) in each case. The GI50 in experiment [13], in [14], in [16], in experiment [17], in [18] and in experiment [19] was > 10 µM (inactive) throughout.

For the compound `CCOC(=O)c1cc2cc([N+](=O)[O-])ccc2oc1=O`, the GI50 in experiment [1], in experiment [2], in [3], in [4], in [5] and in experiment [6] was > 100 µM (inactive) each time. In addition, the GI50 in experiment [7] is 93.3 µM (inactive); in [20] it was 99.5 µM (inactive); in experiment [8] it was > 100 µM (inactive); in experiment [9] it was 62.1 µM (inactive); in experiment [10], > 100 µM (inactive); in [11] it was > 100 µM (inactive). Also, the GI50 in experiment [12] is > 100 µM (inactive); in experiment [13] it was 39.3 µM (inactive); in experiment [14], > 100 µM (inactive); in experiment [16] it was > 100 µM (inactive); in experiment [17], > 100 µM (inactive); in [18], > 100 µM (inactive). In experiment [19], the GI50 was > 100 µM (inactive).

In the case of `C=CCOCn1cc(C)c(=O)[nH]c1=O`, the GI50 in experiment [1], in experiment [2], in experiment [3], in experiment [4], in [5] and in [6] was > 100 µM (inactive) in each case. In addition, the GI50 in [7], in experiment [20], in experiment [8], in experiment [9], in experiment [12] and in experiment [13] was > 100 µM (inactive) in each case. Also, the GI50 in experiment [14], in experiment [15], in [16], in experiment [17] and in experiment [18] was > 100 µM (inactive) each time.

With `CCOc1ccc2c(c1)c(CC(=O)O)cn2C`, the GI50 in [1], in [2], in experiment [3], in [4], in [5] and in experiment [6] was > 100 µM (inactive) each time. In addition, the GI50 in experiment [7], in [20], in experiment [9], in experiment [10], in experiment [12] and in experiment [13] was > 100 µM (inactive) in each case. Moreover, the GI50 in experiment [14], in experiment [15], in experiment [16], in [17] and in experiment [19] was > 100 µM (inactive) each time.

`CC(C)=NN/C(=N\c1ccc(Cl)cc1)NS(=O)(=O)c1cc(Cl)c(Oc2ccc([N+](=O)[O-])cc2Cl)c(Cl)c1`: the GI50 is > 100 µM (inactive) in experiment [1]; 76.7 µM (inactive) in [2]; > 100 µM (inactive) in [4]; 78.5 µM (inactive) in experiment [5]; > 100 µM (inactive) in experiment [6]; > 100 µM (inactive) in [7]. The GI50 was > 100 µM (inactive) in [20]; > 100 µM (inactive) in experiment [8]; > 100 µM (inactive) in [9]; > 100 µM (inactive) in experiment [10]; 67.3 µM (inactive) in [11]; 87.9 µM (inactive) in experiment [12]. In addition, the GI50 in experiment [13] is > 100 µM (inactive); in [14] it was 86.1 µM (inactive); in experiment [16], > 100 µM (inactive); in experiment [17], > 100 µM (inactive); in experiment [18] it was > 100 µM (inactive); in [19], > 100 µM (inactive).

Take `O=c1cc(NNc2cccc(F)c2)[nH]c(=S)[nH]1`: the GI50 in experiment [1] is 44.3 µM (inactive); in [2] it was > 100 µM (inactive); in [3], > 100 µM (inactive); in experiment [4], > 100 µM (inactive); in experiment [6] it was > 100 µM (inactive); in experiment [7] it was > 100 µM (inactive). Moreover, the GI50 in experiment [20] is 71.9 µM (inactive); in [8], > 100 µM (inactive); in experiment [9] it was 61.5 µM (inactive); in experiment [10], 26.9 µM (inactive); in experiment [11], > 100 µM (inactive); in experiment [12], > 100 µM (inactive). Besides, the GI50 in experiment [13] is 1.97 µM (inactive); in [14] it was > 100 µM (inactive); in [16], > 100 µM (inactive); in [17], > 100 µM (inactive); in [18] it was > 100 µM (inactive); in experiment [19], 54.6 µM (inactive).

Turning to `COc1cccc([C@H]2CC(=O)c3cc4c(cc3N2)OCO4)c1`, the GI50 is 0.418 µM (active) in experiment [1]; 0.296 µM (active) in [2]; 0.847 µM (active) in experiment [3]; 8.59 µM (inactive) in experiment [4]; 0.49 µM (active) in experiment [5]; 0.397 µM (active) in experiment [6]. For the same compound, the GI50 is 0.352 µM (active) in experiment [7]; 0.622 µM (active) in experiment [8]; 0.552 µM (active) in experiment [9]; 0.598 µM (active) in experiment [10]; 20.6 µM (inactive) in experiment [11]; 0.275 µM (active) in [12]. In addition, the GI50 in experiment [13] is 0.646 µM (active); in experiment [14] it was 0.296 µM (active); in [15], 0.419 µM (active); in [16], 0.394 µM (active); in experiment [17], 0.312 µM (active); in experiment [18] it was 0.428 µM (active). Besides, the GI50 in experiment [19] was 0.393 µM (active).

On to `CCOC(=O)c1nc2cc(C(F)(F)F)ccc2nc1Nc1ccc(OC)c(OC)c1`, for which the GI50 in [1], in experiment [2], in [3], in experiment [4], in experiment [5] and in experiment [6] was > 100 µM (inactive) throughout. In addition, the GI50 in experiment [7], in experiment [20], in [8], in [9], in experiment [10] and in experiment [12] was > 100 µM (inactive) each time. Besides, the GI50 in experiment [13], in [14], in experiment [15], in experiment [16], in experiment [17] and in experiment [18] was > 100 µM (inactive) in each case.
